The numbers were not newly measured in patent US20150190399A1, “NEW DIFFERENTIAL-RELEASE PHARMACEUTICAL COMPOSITION CONTAINING THREE ACTIVE PRINCIPLES” (LANDSTEINER SCIENTIFIC S.A. DE C.V., priority 2012, published 2015), which cites them from elsewhere.

For this series the following is noted: in vivo.

For `CCCCc1nc(Cl)c(CO)n1Cc1ccc(-c2ccccc2-c2nn[nH]n2)cc1` [Losartan potassium, losartan potassium], the half-life entry is listed as “approximately 2 hours”.
